Measured values published in publication PMC7959842, “Deregulation of Factor H by Factor H-Related Protein 1 Depends on Sialylation of Host Surfaces” (Frontiers in Immunology, 2021).

Legend:
Format in all cases: binding
[1] = molecular target: T1, FH18-20 (Homo sapiens, UniProt P08603); test: SPR, immobilised glycan, concentration series; conditions: labelled compound (biotin-coupled on streptavidin chip); PBS, 0.005% Tween20, 25 °C; rough estimate, saturation not reached; read-out: affinity
T1 construct: gene CFH; C-terminal fragment CCP18-20, monomeric, recombinant from Pichia pastoris
T1 sequence (P08603 1046-1231 limits assumed): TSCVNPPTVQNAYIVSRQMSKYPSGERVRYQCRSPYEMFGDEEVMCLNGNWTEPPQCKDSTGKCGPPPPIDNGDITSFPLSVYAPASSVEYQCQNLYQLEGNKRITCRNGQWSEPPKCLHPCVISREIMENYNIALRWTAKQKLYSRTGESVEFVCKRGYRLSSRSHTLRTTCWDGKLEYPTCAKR

[2] = molecular target: T2, FH19-20 (Homo sapiens, UniProt P08603); test: SPR, immobilised glycan, concentration series; conditions: labelled compound (biotin-coupled on streptavidin chip); PBS, 0.005% Tween20, 25 °C; rough estimate, saturation not reached; read-out: affinity
T2 construct: gene CFH; C-terminal fragment CCP19-20, recombinant from Pichia pastoris
T2 sequence (P08603 1107-1231 limits assumed): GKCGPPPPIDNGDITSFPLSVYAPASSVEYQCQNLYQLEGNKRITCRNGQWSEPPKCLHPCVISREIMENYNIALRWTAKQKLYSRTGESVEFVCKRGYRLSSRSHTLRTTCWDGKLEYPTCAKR

[3] = molecular target: T1, FH18-20; test: intrinsic tryptophan fluorescence (nanoDSF), titration; also STD NMR; conditions: 50 mM HEPES pH 7.4, 150 mM NaCl, 3 mM EDTA; 20 and 37 °C; in solution

| Kd [1] [µM] | Kd [2] [µM] | Compound | affinity [3] |
| --- | --- | --- | --- |
| > 100 | > 100 | biotinylated 3´-sialyl-N-acetyllactosaminide |  |
|  |  | CC(=O)N[C@H]1[C@H]([C@H](O)[C@H](O)CO)O[C@@](O[C@H]2[C@@H](O)[C@@H](CO)O[C@@H](O[C@H]3[C@H](O)[C@@H](O)C(O)O[C@@H]3CO)[C@@H]2O)(C(=O)O)C[C@@H]1O (stereo partly drawn) [3’-sialyllactose] | monovalent interactions in solution were generally weaker; with estimated affinities in the millimolar range |
